Assay [1] concerns C. sojina QoI fungicide-sensitive isolate Cs320. The assay is described as follows: microbe, parasite or virus in culture. The following applies: SFM, ~10^5 conidia ml−1, room temperature, 48 h; resazurin cell viability assay and microscopy. It is filed as cell-based, Cercospora sojina. On the procedure:
In vitro antifungal activity of AFPs and QoI fungicides was determined using 96-well plate assays as described ([Velivelli et al., 2020]) with slight modifications. Briefly, 2- to 3-week-old C. sojina was used to make a conidial suspension in 2× SFM at the final concentration of ∼10^5 conidia ml^−1. Simultaneously, peptide dilutions (in water) at various concentrations were made. Fungicides were dissolved in 50% acetone and 50% water to make a stock solution of 500 µM, and serial dilutions were made in water as needed. The peptide–conidia or the fungicide–conidia mixture at the ratio of 1:1 (45 µl:45 µl) was added in a 96-well plate and incubated at room temperature for 48 h, after which MICs of the peptides/fungicides were calculated based on microscopy as well as the resazurin cell viability assay ([Velivelli et al., 2020]).

Assay [2] concerns C. sojina Cs320 and Cs350 on soybean cv. Blackhawk (FLS). The assay is described as follows: Pre- and post-inoculation in planta antifungal assays with fungal DNA qPCR. It is filed as in vivo, Cercospora sojina. The protocol: For both pre- and post-inoculation in planta antifungal activity assays, 2- to 3-week-old soybean plants cv. Blackhawk (FLS susceptible) grown under a16 h light and 8 h dark cycle were used. For pre-inoculation in planta antifungal activity assay, the second or third trifoliate leaves of soybean plants were first sprayed with 1 ml of NCR13_PFV1 peptide (48 µM) on the abaxial leaf surface followed by spray inoculation with 1 ml of conidial suspension (1×10^5 ml^−1) of azoxystrobin-sensitive Cs320 or -resistant Cs350 isolate. For the post-inoculation in planta antifungal activity assay, the second or third trifoliate leaves of soybean were first spray-inoculated with 1 ml of conidial suspension (1×10^5 ml^−1) followed by spray application of 1 ml of NCR13_PFV1 peptide (48 µM) 2 h later. The mock-treated plants were sprayed with water but no peptide. For both pre- and post-inoculation in planta assays, each treatment consisted of at least four plants and the experiments were performed at least twice. The inoculated plants were kept in a growth chamber under a 16 h light and 8 h dark cycle and 90% relative humidity. The FLS symptoms started to appear 7–10 d post-inoculation and disease scoring was done at 14 d. Diseased leaves were excised from the plant, and both white light and CropReporter (Fv/Fm) images were taken to assess the photosynthetic efficiency of the plant. The leaves were also scored based on a 0–5 scale where: 0=healthy leaves with no leaf spots, 1=1–25% leaf area covered with spots, 2=26–50% leaf area covered with spots, 3=slightly yellow leaves with 51–75% leaf area covered with spots, 4=moderately yellow leaves with 76–95% leaf area covered with spots, and 5=whole leaf is yellow or >96% leaf area covered with spots.
Furthermore, DNA was extracted from the excised leaves to quantify the fungal DNA content using quantitative PCR (PCR). […] DNA quantification in terms of fold change was calculated using the ΔΔCt method ([Livak and Schmittgen, 2001]). […]

Assay [3] can be described thus: Heme-peptide binding assay (colour change). Conditions: equimolar heme and peptide, 100 µM, 1 h, room temperature. On the procedure:
Heme solutions were freshly prepared by dissolving hemin chloride (Sigma Cat No: 3741) in 0.1 M NaOH and used within an hour after preparation. Two heme-sequestering peptides, NCR247 and NCR455 ([Montiel et al., 2017]; [Sankari et al., 2022]), were used as positive controls, and water-only treatment as a negative control. The equimolar concentration of heme and peptide (100 µM) or water were mixed and incubated at room temperature for 1 h. When dissolved in NaOH, heme is light to dark brown in color; however, when it binds to a peptide, the color changes to reddish-brown as described by [Sankari et al. (2022)]. The change in color of heme to reddish-brown indicated the heme binding ability of the peptide.

Where no end group is shown, it is not given here.

Regarding “TKPCQSDKDCKKFACRKPKVPKCINGFCKCVR (disulfide (positions not given here)) [NCR13_PFV1, chickpea nodule-specific cysteine-rich 32 amino acid peptide, disulfide cross-linking variant 1, expressed in Pichia pastoris]”, the “MIC (μM) against C. sojina isolates, Fungicide sensitive, Cs320” value in assay [1] amounted to 0.75 µM. The “fungal biomass in infected leaves (fungal DNA, qPCR)” value in assay [2] (48 µM spray, Cs320 and Cs350, P-value ≤0.05) is reported as “significantly reduced biomass”. Moreover, in assay [2] (48 µM spray, pre- or post-inoculation (2 h), Cs320 or Cs350, scored at 14 d, Wilcoxon, P-value ≤0.05, n=8, r=2), the “FLS symptoms (disease severity, 0–5 scale)” value was “significantly reduced”. In assay [2] (preliminary experiments, 12 µM to 48 µM tested), the “concentration giving the best control of FLS symptoms” value is 48 µM. Further, the “heme binding (colour change of heme from brown to reddish-brown)” value in assay [3] was “no such color change”.
